Experimental data taken from patent US20150299125A1, “PRODRUG BIPYRIDYLAMINOPYRIDINES AS SYK INHIBITORS” (MERCK SHARP & DOHME CORP., priority 2012, published 2015).
Like-named read-outs stand apart in the source and are kept apart here.

How the values were obtained:
[1] = biological target: T1, recombinant human GST-Syk (Homo sapiens, UniProt P43405); test: Homogeneous Time-Resolved Fluorescence (HTRF) assay for the recombinant human Syk enzyme; assay type: biochemical; conditions: recombinant human GST-Syk 5 pM, ATP 25 μM, read-out: IC50
T1 construct: purchased Carna Biosciences 08-176
How it was run: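 HTRF read-out, taken 30 min after adding 2 nM europium anti-pTyr antibody plus 70 nM streptavidin-APC in 40 mM EDTA/Tris pH 7.5, detects peptide phosphorylated by GST-tagged human Syk during a 45-min room-temperature reaction.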

[2] = Conversion of prodrug to parent in in vitro biorelevant gastrointestinal tract media; assay type: in vitro ADME; conditions: 37° C.; for Conversion in SGF, time: simulated gastric fluid
Protocol: Conversion of Prodrug to Parent in In Vitro Biorelevant Gastrointestinal Tract Media: The likely stability of prodrugs in the gastrointestinal tract can be estimated by incubating a prodrug in simulated gastric and intestinal fluids; compounds were measured for stability in simulated gastric fluid (SGF), fasted state simulated intestinal fluid (FaSSIF), and fasted state simulated intestinal fluid plus pancreatin (FaSSIF+pancreatin). Prodrug stock solutions were made by diluting 2 mg of compound in 200 μL DMSO. A 10 mg/mL Pancreatin in FaSSIF stock solution was made by dissolving 10 mg Pancreatin in 1 mL FaSSIF. Samples were prepared by diluting 10 μL of compound stock solution into 990 μL of biorelevant media (990 μL SGF, 990 μL FaSSIF, or 940 μL FaSSIF plus 50 μL Pancreatin stock) in a 2 mL HPLC vial and vortexing the mixture for a few seconds. The samples were incubated at 37° C. and aliquots were removed for up to 24 hours and injected directly on an HPLC to determine the conversion of prodrug to active drug. In the case of compound precipitation upon sample preparation, an individual sample was prepared for each desired time point and the entire sample was diluted with a known volume of acetonitrile/water (50/50) to ensure compound dissolution before HPLC analysis.

[3] = Conversion of prodrug to parent in intestine homogenate; assay type: in vitro ADME; conditions: prodrug 1 μM, intestine S9 1 mg protein/mL, 37° C., pH 7.4, 2 h
Protocol: Conversion of Prodrug to Parent in Intestine Homogenate:
(§1) The likely stability of prodrugs in the intestine can be estimated by incubating a prodrug with intestine homogenate. Incubations of prodrugs (1 μM) with intestine S9 (1 mg protein/mL) were carried out at 37° C. in a phosphate buffer, pH 7.4. Control incubations contained BSA (1.1 mg/mL) instead of intestine S9 microsomes. Aliquots were removed at 0, 5, 15, 30, 60 and 120 min, treated with 4 volumes of acetonitrile containing 2% formic acid and an internal standard, and centrifuged. The supernatants were analyzed by LC-MS/MS for prodrug disappearance and appearance of active drug. The half-life of the prodrug was calculated from the % prodrug remaining at different time points calculated from on the peak area ratio relative to t=0. The amount of active drug generated at the different time points was determined using a standard curve.

[4] = Conversion of prodrug to parent in liver homogenate; assay type: in vitro ADME; conditions: prodrug 1 μM, liver S9 1 mg protein/mL, 37° C., pH 7.4, 2 h
Protocol: Conversion of Prodrug to Parent in Liver Homogenate:
as §1, with “liver” for “intestine”

Blood stability assay = assay type: in vitro ADME; conditions: whole blood; human blood, 37° C.
Protocol: The likely stability of prodrugs in the blood can be estimated by incubating a prodrug with blood. A prodrug stock solution was prepared at 10 mM in DMSO and working solutions (100 μM) containing the prodrug were prepared by diluting a suitable amount of the stock solution with acetonitrile/water (50/50). 5 μL of the working solution were added to 495 μL of pre-warmed blood (at 37° C.). After vortexing and mixing, 50 μL of the spiked blood sample were taken for the 0 time point and transferred to another vial containing 200 μL of quenching solution (labetalol, alprazolam and diclofenac in 100% acetonitrile) ensuring that the vial is lidded to prevent evaporation and kept on ice. While keeping the spiked blood sample at 37° C. at the following timepoints (0.25, 0.5, 1, 2 and 3 h) 5 additional aliquots (50 μL) were sampled and mixed with the quenching solution. At the end of the experiment the quenched samples were vortexed for 2 minutes and centrifuged for 10 minutes at 4000 rpm. The supernatant (100 μL) was then transferred and collected into a new 96-well plate and injected into the LC-MS/MS for analysis. For each test compound, the area ratios at each time point to the 0 hour area ratio were compared and converted to a percentage remaining. The percentage remaining were then plotted against time (h) and half life generated using the following equation t½=0.693/kel. Where kel is the elimination rate constant which is determined from the concentration versus time curve by linear regression at the terminal phase of the semi-logarithmic plot.

[5] = Solubility in biorelevant fasted state simulated intestinal fluid (FaSSIF); assay type: physicochemical; conditions: 25 °C, fassif, kinetic from dmso stock
How it was run: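 Compound from 10 mM DMSO stock diluted into FaSSIF (maximum solubility approximately 200 μM), equilibrated, then filtered by centrifugation through a 0.45 μm polypropylene membrane. Filtrate and a 100 μM standard analysed by HPLC/DAD; solubility = (sample peak area/standard peak area) × standard concentration.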

[6] = dosed intranasally, phase I/II study, allergic rhinitis; cited from earlier work
[7] = phase II clinical trial for allergic rhinitis; cited from earlier work

IC50 [1] [nM]	Conversion in FaSSIF + Pancreatin, time ([2]; 3 h)	Conversion in FaSSIF, time ([2]; 5 h)	Conversion in SGF, time ([2]; 5 h)	Prodrug concentration at 2 h [3] [µM]	Prodrug concentration at 2 h [4] [µM]	half-life at 1 μM (Blood stability assay) [min]	solubility ([5]; FaSSIF (fasted state simulated intestinal fluid), FaSSIF, equilibrated overnight at 25° C., maximum solubility approximately 200 μM, read-out: Solubility) [µM]	Conversion in FaSSIF, time ([2]; 3 h)	solubility ([5]; Solubility) [µM]	Structure (SMILES)	PGD2 [6]	clinical safety [6]	efficacy versus placebo [7]
174	100%, 3 h	0%, 5 h	0%, 5 h	0	0	7	–	–	–	CCOCCOCCOC(=O)OCOC(=O)[C@H]1CC[C@H]([C@@](C)(O)c2ccc(-c3cc(C)cc(Nc4cc(C(F)F)ccn4)n3)cn2)CC1 [Example 2-2, 3-oxo-2,4,7,10-tetraoxadodec-1-yl trans-4-[(1R)-1-(6-{[4-(difluoromethyl)pyridin-2-yl]amino}-4-methyl-2,3′-bipyridin-6′-yl)-1-hydroxyethyl]cyclo hexanecarboxylate]	–	–	–
3.6	45%, 3 h	–	0%, 5 h	0.321	0.314	15	200	12%, 3 h	–	Cc1cc(Nc2cc(C(F)F)ccn2)nc(-c2ccc([C@](C)(O)[C@H]3CC[C@H](C(=O)OC[N+]4(C)CCOCC4)CC3)nc2)c1.[I-] [Example 5-1, 4-{[({trans-4-[(1R)-1-(6-{[4-(Difluoromethyl)pyridin-2-yl]amino}-4-methyl-2,3′-bipyridin-6′-yl)-1-hydroxyethyl]cyclohexyl}carbonyl)oxy]methyl}-4-methylmorpholin-4-ium]	–	–	–
0.8	–	–	–	0.844	0.622	24	–	–	140	Cc1cc(Nc2cc(C(F)F)ccn2)nc(-c2ccc([C@](C)(O)[C@H]3CC[C@H](C(=O)OCn4cc[n+](C)c4)CC3)nc2)c1 [Example 6-1, 1-{[({Trans-4-[(1R)-1-(6-{[4-(Difluoromethyl)pyridin-2-yl]amino}-4-methyl-2,3′-bipyridin-6′-yl)-1-hydroxyethyl]cyclohexyl}carbonyl)oxy]methyl}-3-methyl-1H-imidazol-3-ium]	–	–	–
–	–	–	–	–	–	–	–	–	–	Oc1cccc(Nc2ncc(F)c(Nc3cccc(O)c3)n2)c1 [Example R112]	statistically significant decrease	safe across a range of indicators	lack of efficacy versus placebo
